# In PubChem BioAssay (NCI):
#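 Grown in 96-well plates, cells were treated for 48 hours with each compound at five concentrations. Insufficient inhibition: endpoint recorded as highest concentration tested. TGI denotes the concentration required for complete inhibition of growth.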 Where a SMILES comes first, the peptide text is derived from it. Side-chain parts run from the residue outwards. The star is where a group is joined. Cbz = O=C(OCc1ccccc1)*; Boc = CC(C)(C)OC(=O)*
# Tests used:
# Test in all cases: inhibition of tumour cell growth, NCI panel, 48 h
# NCI-H522 lung = test system: NCI-H522 lung
# HL-60(TB) leukemia = test system: HL-60(TB) leukemia
# HOP-92 NSCLC = test system: HOP-92 NSCLC
# HCT-116 colon = test system: HCT-116 colon
# MALME-3M melanoma = test system: MALME-3M melanoma
# BT-549 breast = test system: BT-549 breast
# UACC-62 melanoma = test system: UACC-62 melanoma
# SR leukemia = test system: SR leukemia
# SNB-75 CNS = test system: SNB-75 CNS
# SF-268 CNS = test system: SF-268 CNS
# SN12C renal = test system: SN12C renal
Structure (SMILES),TGI (NCI-H522 lung),TGI (HL-60(TB) leukemia),TGI (HOP-92 NSCLC),TGI (HCT-116 colon),TGI (MALME-3M melanoma),TGI (BT-549 breast),TGI (UACC-62 melanoma),TGI (SR leukemia),TGI (SNB-75 CNS),TGI (SF-268 CNS),TGI (SN12C renal)
CCOC(=O)C(NC(=O)CC)(Nc1ccc(S(=O)(=O)Nc2ccc(OC)nn2)cc1)C(F)(F)F (centres undefined),> 100 µM,> 100 µM,> 100 µM,> 100 µM,> 100 µM,> 100 µM,> 100 µM,> 100 µM,> 100 µM,> 100 µM,> 100 µM
O=C1c2cccnc2-c2nccc3c2c1nc1ccc(Br)cc13,0.128 µM,0.0377 µM,0.794 µM,0.0324 µM,0.338 µM,0.176 µM,0.124 µM,0.0372 µM,0.595 µM,0.143 µM,0.205 µM
Nc1ccccc1OCCCOc1ccccc1N,> 100 µM,> 100 µM,> 100 µM,> 100 µM,> 100 µM,> 100 µM,> 100 µM,> 100 µM,> 100 µM,> 100 µM,> 100 µM
COC12C=CC(CC1)C(C)(C)C2OS(C)(=O)=O (centres undefined),> 100 µM,> 100 µM,> 100 µM,> 100 µM,> 100 µM,> 100 µM,> 100 µM,> 100 µM,> 100 µM,> 100 µM,> 100 µM
O=C(NNS(=O)(=O)c1ccccc1)c1csc(NC(=S)NC2CCCCC2)n1,82.7 µM,> 100 µM,> 100 µM,36 µM,> 100 µM,45.3 µM,61.3 µM,> 100 µM,> 100 µM,62.8 µM,39.3 µM
CN(C)C=NCC(O)c1ccccc1 (centres undefined),> 100 µM,> 100 µM,> 100 µM,> 100 µM,> 100 µM,> 100 µM,> 100 µM,> 100 µM,> 100 µM,> 100 µM,> 100 µM
COc1ccc(C2=NNC(c3cc4cc(Br)ccc4nc3Cl)C2)cc1 (centres undefined),,12.1 µM,> 25 µM,> 25 µM,,> 25 µM,> 25 µM,> 25 µM,> 25 µM,,> 25 µM
CC(=O)OCC1OC(SC2=NC(=O)/C(=C/c3ccccc3)S2)C(OC(C)=O)C(OC(C)=O)C1OC(C)=O (centres undefined),80.6 µM,31.3 µM,44.2 µM,> 100 µM,70.5 µM,78.9 µM,87.2 µM,51.5 µM,44.7 µM,52.3 µM,> 100 µM
COc1ccc(-c2nc(-c3cnccn3)n(Cc3ccccc3)n2)cc1,> 100 µM,> 100 µM,> 100 µM,> 100 µM,,> 100 µM,> 100 µM,> 100 µM,> 100 µM,> 100 µM,> 100 µM
CC(=O)c1[nH]c(Nc2ccc(C)cc2)c(C(=S)Nc2ccccc2)c1N,32.5 µM,54.1 µM,35.9 µM,35.4 µM,31.9 µM,31.6 µM,31.7 µM,> 100 µM,50.3 µM,30.2 µM,35 µM
C[C@@]12C[C@@H](c3ccccc3O1)N1Cc3ccccc3CSC1=N2,> 100 µM,,> 100 µM,> 100 µM,> 100 µM,> 100 µM,> 100 µM,> 100 µM,> 100 µM,> 100 µM,> 100 µM
COc1ccc(Cn2c3ccc([N+](=O)[O-])cc3c(=O)n2Cc2ccccn2)cc1,> 100 µM,75.1 µM,> 100 µM,> 100 µM,> 100 µM,> 100 µM,> 100 µM,> 100 µM,> 100 µM,> 100 µM,> 100 µM
S=C(N/N=C(\C(=N/NC(=S)N1CCCCC1)c1ccccn1)c1ccccn1)N1CCCCC1,> 100 µM,19.8 µM,> 100 µM,> 100 µM,> 100 µM,> 100 µM,> 100 µM,> 100 µM,> 100 µM,> 100 µM,
CC1(C)CN=CC(C)(OCc2ccccc2)C(=O)NC(C)(C)CN=CC(C)(OCc2ccccc2)C(=O)N1 (centres undefined),,> 10 µM,0.808 µM,> 10 µM,,> 10 µM,> 10 µM,> 10 µM,> 10 µM,> 10 µM,> 10 µM
CC(=O)OCC1OC(n2c(N)c(C#N)c(-c3cccc(Cl)c3)c(C#N)c2=S)C(OC(C)=O)C(OC(C)=O)C1OC(C)=O (centres undefined),,52 µM,> 100 µM,94 µM,> 100 µM,70.8 µM,> 100 µM,42.8 µM,56.2 µM,39.4 µM,> 100 µM
CC1CCOc2ccc(cc2)C=Nc2ccc(cc2)-c2ccc(cc2)N=Cc2ccc(cc2)OCC1 (centres undefined),> 100 µM,> 100 µM,> 100 µM,> 100 µM,,> 100 µM,,> 100 µM,,> 100 µM,> 100 µM
N#Cc1ccc2[nH]c3c(c2c1)CC(=O)Nc1ccccc1-3,> 100 µM,> 100 µM,> 100 µM,> 100 µM,,> 100 µM,> 100 µM,> 100 µM,> 100 µM,> 100 µM,
CN(C)CC1CCCc2ccccc2C1=O (centres undefined),,,34.8 µM,3.26 µM,3.62 µM,9.8 µM,6.18 µM,> 100 µM,56.2 µM,5.55 µM,24.2 µM
COc1ccc(C2C(C#N)=C(S)N(C3OC(CO)C(O)C(O)C3O)C(C)=C2C(C)=O)cc1 (centres undefined),> 100 µM,> 100 µM,> 100 µM,> 100 µM,> 100 µM,> 100 µM,> 100 µM,> 100 µM,> 100 µM,> 100 µM,> 100 µM

Structure (SMILES),TGI (NCI-H522 lung),TGI (HL-60(TB) leukemia),TGI (HOP-92 NSCLC),TGI (HCT-116 colon),TGI (MALME-3M melanoma),TGI (BT-549 breast),TGI (UACC-62 melanoma),TGI (SR leukemia),TGI (SNB-75 CNS),TGI (SF-268 CNS),TGI (SN12C renal)
NC1=Nc2ccccc2Sc2nc3ccccc3n21,> 100 µM,6.49 µM,> 100 µM,32.8 µM,> 100 µM,> 100 µM,> 100 µM,> 100 µM,> 100 µM,> 100 µM,> 100 µM
O=C(CC(c1ccccc1)C(C(=O)c1ccncc1)C(CC(=O)c1ccncc1)c1ccccc1)c1ccncc1 (centres undefined),,> 100 µM,> 100 µM,> 100 µM,> 100 µM,57.3 µM,> 100 µM,> 100 µM,> 100 µM,> 100 µM,
O=c1c2cc(I)ccc2nc(SCc2nnco2)n1Cc1ccccc1,> 100 µM,35.4 µM,> 100 µM,> 100 µM,,> 100 µM,> 100 µM,> 100 µM,> 100 µM,> 100 µM,> 100 µM
CC(C)(C)OC(=O)NC(CCCCNC(=O)CNC(=O)OCc1ccccc1)C(=O)NC(CCCCNC(=O)CNC(=O)OCc1ccccc1)C(=O)NC(CCCCNC(=O)CNC(=O)OCc1ccccc1)C(=O)NC(CCCCNC(=O)CNC(=O)OCc1ccccc1)C(=O)O (centres undefined) (Boc-K([Gly-Cbz])K([Gly-Cbz])K([Gly-Cbz])K([Gly-Cbz])-OH; configuration not given here),> 100 µM,> 100 µM,,> 100 µM,> 100 µM,> 100 µM,> 100 µM,> 100 µM,> 100 µM,> 100 µM,> 100 µM
COc1cc(O)cc(O)c1C(=O)CC(Cl)(Cl)Cl,> 100 µM,> 100 µM,> 100 µM,> 100 µM,> 100 µM,> 100 µM,> 100 µM,> 100 µM,,> 100 µM,> 100 µM
OC1(c2ccc(Cl)cc2)c2c(c3ccccc3c3ccccc23)C2=NCCN21 (centres undefined),,> 100 µM,49.4 µM,25.7 µM,40.1 µM,33.7 µM,32 µM,30.5 µM,7.52 µM,24.9 µM,44.7 µM
COc1cc(C2c3cc(OC)c(OC)c(O)c3C(=O)C3CCC(=O)N32)cc(OC)c1OC (centres undefined),77.6 µM,> 100 µM,> 100 µM,> 100 µM,,91.3 µM,> 100 µM,> 100 µM,> 100 µM,> 100 µM,> 100 µM
CC1C(C#N)(C#N)C(C#N)=C(N)C1(C)[N+](=O)[O-] (centres undefined),> 100 µM,90.7 µM,8.96 µM,> 100 µM,> 100 µM,> 100 µM,> 100 µM,> 100 µM,> 100 µM,> 100 µM,> 100 µM
COc1ccc(N2N=NN(C(C)C)/C2=C(/Cl)c2nnnn2-c2ccc(OC)cc2)cc1,5.48 µM,5.15 µM,6.19 µM,14.1 µM,24.7 µM,29.7 µM,28.7 µM,> 31.8 µM,26.5 µM,34.6 µM,28.2 µM
CCN(CC)c1ccc2cc(C(N)=O)c(=Nc3ccc(F)cc3)oc2c1,> 100 µM,> 100 µM,> 100 µM,> 100 µM,> 100 µM,> 100 µM,> 100 µM,> 100 µM,47 µM,> 100 µM,> 100 µM
O=C1CC(C(COCc2ccccc2)OCc2ccccc2)CC(=O)N1 (centres undefined),> 100 µM,> 100 µM,> 100 µM,> 100 µM,> 100 µM,> 100 µM,,> 100 µM,,> 100 µM,> 100 µM
O=C(/C=C/c1ccccc1)Oc1cccc(Br)c1,29.2 µM,52.1 µM,> 100 µM,> 100 µM,,> 100 µM,> 100 µM,59.3 µM,> 100 µM,> 100 µM,> 100 µM
Cc1cn([C@@H]2C[C@H](CO)[C@@H]2O)c(=O)[nH]c1=O,> 100 µM,> 100 µM,> 100 µM,> 100 µM,> 100 µM,> 100 µM,,> 100 µM,> 100 µM,> 100 µM,> 100 µM
OC(C1CCCCCCCCCC1)C(O)C1CCCCCCCCCC1 (centres undefined),> 100 µM,> 100 µM,,> 100 µM,> 100 µM,> 100 µM,> 100 µM,> 100 µM,> 100 µM,> 100 µM,> 100 µM
Cc1c2cccc-2c(OCCOC(=O)n2ccnc2)cc2c1[nH]c1ccccc12,4.66 µM,5.46 µM,4.28 µM,10.3 µM,7.61 µM,9.06 µM,6.63 µM,> 100 µM,3.02 µM,5.8 µM,5.89 µM
C[C@]12CC[C@H](O)CC1=CC[C@@H]1[C@@H]2CC[C@]2(C)C(=O)/C(=C/c3ccc([N+](=O)[O-])cc3)C[C@@H]12,30.6 µM,> 100 µM,22.6 µM,62.3 µM,53.7 µM,57.5 µM,> 100 µM,> 100 µM,9.67 µM,21.5 µM,33 µM
O=C1CCCCN1C(=O)c1ccc([N+](=O)[O-])cc1,> 100 µM,> 100 µM,> 100 µM,> 100 µM,> 100 µM,> 100 µM,> 100 µM,> 100 µM,> 100 µM,> 100 µM,> 100 µM
COc1cc(S(=O)(=O)Nc2ccc(-c3csc(N4C(=O)C(C)SC4c4ccccc4)n3)cc2)ccc1Cl (centres undefined),> 100 µM,47.7 µM,> 100 µM,> 100 µM,> 100 µM,> 100 µM,52.8 µM,> 100 µM,32.7 µM,> 100 µM,> 100 µM
